From ChEMBL document CHEMBL5465560, “Selectivity Literature for EUbOPEN Chemogenomic Library” (2024)

Experiments:
[1] = biological target: T1, Serine/threonine-protein kinase Nek5 (Homo sapiens) (UniProt Q6P3R8); test: Selectivity interaction (KinomeScan (DiscoverX)) EUB0001049a NEK5; conditions: at 1 µM
T1 sequence (whole entry): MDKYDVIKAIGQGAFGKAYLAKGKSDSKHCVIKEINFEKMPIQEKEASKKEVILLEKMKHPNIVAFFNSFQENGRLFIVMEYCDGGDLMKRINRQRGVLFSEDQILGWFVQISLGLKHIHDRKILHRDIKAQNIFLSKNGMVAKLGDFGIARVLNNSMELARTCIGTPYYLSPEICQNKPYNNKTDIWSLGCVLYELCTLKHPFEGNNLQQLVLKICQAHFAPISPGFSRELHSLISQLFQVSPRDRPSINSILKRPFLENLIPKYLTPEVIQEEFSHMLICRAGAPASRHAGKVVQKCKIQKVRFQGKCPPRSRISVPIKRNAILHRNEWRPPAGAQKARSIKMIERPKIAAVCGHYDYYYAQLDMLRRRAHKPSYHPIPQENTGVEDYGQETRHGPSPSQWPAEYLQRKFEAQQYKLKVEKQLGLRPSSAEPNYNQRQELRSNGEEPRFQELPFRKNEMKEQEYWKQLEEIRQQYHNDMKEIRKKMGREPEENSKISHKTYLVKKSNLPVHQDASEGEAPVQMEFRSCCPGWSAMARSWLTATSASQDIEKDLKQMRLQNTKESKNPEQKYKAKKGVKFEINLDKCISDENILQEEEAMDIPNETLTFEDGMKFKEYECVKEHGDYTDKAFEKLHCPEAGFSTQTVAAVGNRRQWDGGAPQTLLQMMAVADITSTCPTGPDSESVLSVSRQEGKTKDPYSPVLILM

[2] = biological target: T2, Aurora kinase B (Homo sapiens, UniProt Q96GD4); test: Selectivity interaction (KinomeScan (DiscoverX)) EUB0000666a AURKB; conditions: at 10 µM
T2 sequence (Q96GD4 whole entry): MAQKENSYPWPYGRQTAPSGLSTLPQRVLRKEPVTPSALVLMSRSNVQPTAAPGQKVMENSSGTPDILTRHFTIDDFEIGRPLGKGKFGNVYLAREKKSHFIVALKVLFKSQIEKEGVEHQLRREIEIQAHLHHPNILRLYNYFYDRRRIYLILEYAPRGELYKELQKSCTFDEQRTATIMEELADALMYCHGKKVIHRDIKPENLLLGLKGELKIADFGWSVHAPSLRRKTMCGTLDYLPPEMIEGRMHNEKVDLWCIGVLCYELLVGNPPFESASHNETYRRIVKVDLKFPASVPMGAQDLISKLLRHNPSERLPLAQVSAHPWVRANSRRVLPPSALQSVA

[3] = biological target: T3, Inhibitor of nuclear factor kappa-B kinase subunit epsilon (Homo sapiens) (UniProt Q14164); conditions: at 10 µM
T3 sequence (whole entry): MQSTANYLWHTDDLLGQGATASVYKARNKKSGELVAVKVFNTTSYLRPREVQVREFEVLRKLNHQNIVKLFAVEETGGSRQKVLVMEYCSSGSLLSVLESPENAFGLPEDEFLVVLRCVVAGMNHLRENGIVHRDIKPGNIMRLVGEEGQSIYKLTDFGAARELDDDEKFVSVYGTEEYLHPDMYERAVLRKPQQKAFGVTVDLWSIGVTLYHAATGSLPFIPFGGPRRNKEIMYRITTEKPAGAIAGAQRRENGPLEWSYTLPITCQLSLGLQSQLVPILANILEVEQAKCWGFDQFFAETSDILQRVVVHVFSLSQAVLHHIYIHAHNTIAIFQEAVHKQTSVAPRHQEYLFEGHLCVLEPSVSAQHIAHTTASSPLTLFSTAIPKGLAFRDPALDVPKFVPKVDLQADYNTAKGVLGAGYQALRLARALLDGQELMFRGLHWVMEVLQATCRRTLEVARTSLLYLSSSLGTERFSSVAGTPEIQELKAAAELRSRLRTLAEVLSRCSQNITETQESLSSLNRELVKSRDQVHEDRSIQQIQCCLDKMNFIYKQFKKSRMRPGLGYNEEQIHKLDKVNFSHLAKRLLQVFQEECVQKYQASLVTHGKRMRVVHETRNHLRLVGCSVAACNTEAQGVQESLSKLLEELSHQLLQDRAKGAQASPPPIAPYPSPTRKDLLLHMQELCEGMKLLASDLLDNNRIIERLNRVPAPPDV

[4] = biological target: T2, Aurora kinase B; conditions: at 10 µM
[5] = biological target: T4, Ephrin type-B receptor 1 (Homo sapiens) (UniProt P54762); test: Selectivity interaction (KinomeScan (DiscoverX)) EUB0000618a EPHB1; conditions: at 10 µM
T4 sequence (whole entry): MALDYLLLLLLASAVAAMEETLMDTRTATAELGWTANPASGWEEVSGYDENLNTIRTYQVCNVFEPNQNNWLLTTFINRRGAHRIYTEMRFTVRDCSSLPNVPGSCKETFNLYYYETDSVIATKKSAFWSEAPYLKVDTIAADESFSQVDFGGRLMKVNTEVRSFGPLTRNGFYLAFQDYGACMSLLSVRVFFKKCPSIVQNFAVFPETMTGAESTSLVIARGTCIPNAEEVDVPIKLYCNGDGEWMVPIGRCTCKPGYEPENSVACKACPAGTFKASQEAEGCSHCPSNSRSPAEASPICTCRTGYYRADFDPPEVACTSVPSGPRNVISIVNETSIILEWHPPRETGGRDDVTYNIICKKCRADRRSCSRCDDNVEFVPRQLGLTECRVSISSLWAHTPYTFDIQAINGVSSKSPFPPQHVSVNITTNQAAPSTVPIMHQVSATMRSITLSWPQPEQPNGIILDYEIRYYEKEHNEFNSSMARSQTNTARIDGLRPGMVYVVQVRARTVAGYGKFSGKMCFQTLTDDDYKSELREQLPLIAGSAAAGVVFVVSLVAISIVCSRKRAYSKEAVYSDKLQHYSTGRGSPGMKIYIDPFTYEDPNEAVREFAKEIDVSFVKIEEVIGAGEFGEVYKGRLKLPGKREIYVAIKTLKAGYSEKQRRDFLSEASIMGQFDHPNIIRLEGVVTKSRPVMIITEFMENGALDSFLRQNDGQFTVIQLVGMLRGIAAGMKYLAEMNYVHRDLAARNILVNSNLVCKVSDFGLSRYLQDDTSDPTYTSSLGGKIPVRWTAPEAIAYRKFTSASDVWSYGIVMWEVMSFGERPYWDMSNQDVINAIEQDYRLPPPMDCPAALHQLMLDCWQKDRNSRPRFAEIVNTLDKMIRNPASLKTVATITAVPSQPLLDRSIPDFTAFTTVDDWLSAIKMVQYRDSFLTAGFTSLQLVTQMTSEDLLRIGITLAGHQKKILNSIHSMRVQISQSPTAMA

[6] = biological target: Tyrosine-protein kinase ABL1 (Homo sapiens, UniProt P00519); test: Selectivity interaction (ActivX KiNativ screen (ex vivo kinase selectivity in human PBMCs)) EUB0001619a ABL1; format: cell-based; conditions: PBMC, at 1 µM
Tyrosine-protein kinase ABL1, sequence (P00519 whole entry): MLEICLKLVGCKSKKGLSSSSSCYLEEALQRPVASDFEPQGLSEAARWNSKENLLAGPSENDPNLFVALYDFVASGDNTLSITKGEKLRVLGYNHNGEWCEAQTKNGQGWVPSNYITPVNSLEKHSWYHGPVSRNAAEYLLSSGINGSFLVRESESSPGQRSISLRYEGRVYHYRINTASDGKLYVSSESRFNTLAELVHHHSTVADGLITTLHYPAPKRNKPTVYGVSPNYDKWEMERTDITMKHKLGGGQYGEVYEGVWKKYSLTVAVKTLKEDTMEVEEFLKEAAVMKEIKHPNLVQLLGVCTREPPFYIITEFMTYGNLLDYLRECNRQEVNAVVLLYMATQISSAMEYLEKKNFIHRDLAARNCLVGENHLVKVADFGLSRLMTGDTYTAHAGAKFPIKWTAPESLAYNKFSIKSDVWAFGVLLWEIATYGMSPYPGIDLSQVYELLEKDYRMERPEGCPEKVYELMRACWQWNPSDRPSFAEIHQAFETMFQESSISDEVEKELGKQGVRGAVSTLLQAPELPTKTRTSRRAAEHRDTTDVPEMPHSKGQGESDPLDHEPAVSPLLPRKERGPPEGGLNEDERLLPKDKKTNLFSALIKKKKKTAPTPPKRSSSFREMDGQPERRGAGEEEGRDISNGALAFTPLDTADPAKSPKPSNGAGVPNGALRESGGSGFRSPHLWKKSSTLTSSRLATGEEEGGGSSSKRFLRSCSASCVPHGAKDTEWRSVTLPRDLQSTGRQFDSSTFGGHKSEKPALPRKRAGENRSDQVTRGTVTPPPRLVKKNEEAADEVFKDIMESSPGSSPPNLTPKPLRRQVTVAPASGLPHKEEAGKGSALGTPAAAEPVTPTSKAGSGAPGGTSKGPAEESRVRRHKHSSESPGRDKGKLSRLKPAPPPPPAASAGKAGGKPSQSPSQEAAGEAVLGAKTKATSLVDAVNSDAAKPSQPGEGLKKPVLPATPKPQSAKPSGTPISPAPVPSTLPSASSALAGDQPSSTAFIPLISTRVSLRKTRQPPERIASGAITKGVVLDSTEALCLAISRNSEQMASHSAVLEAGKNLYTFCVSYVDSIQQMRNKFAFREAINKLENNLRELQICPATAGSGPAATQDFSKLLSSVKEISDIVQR

[7] = biological target: Serine/threonine-protein kinase PLK1 (Homo sapiens, UniProt P53350); test: Selectivity interaction (KinomeScan (DiscoverX)) EUB0001619a PLK1; conditions: at 1 µM
Serine/threonine-protein kinase PLK1, sequence (P53350 whole entry): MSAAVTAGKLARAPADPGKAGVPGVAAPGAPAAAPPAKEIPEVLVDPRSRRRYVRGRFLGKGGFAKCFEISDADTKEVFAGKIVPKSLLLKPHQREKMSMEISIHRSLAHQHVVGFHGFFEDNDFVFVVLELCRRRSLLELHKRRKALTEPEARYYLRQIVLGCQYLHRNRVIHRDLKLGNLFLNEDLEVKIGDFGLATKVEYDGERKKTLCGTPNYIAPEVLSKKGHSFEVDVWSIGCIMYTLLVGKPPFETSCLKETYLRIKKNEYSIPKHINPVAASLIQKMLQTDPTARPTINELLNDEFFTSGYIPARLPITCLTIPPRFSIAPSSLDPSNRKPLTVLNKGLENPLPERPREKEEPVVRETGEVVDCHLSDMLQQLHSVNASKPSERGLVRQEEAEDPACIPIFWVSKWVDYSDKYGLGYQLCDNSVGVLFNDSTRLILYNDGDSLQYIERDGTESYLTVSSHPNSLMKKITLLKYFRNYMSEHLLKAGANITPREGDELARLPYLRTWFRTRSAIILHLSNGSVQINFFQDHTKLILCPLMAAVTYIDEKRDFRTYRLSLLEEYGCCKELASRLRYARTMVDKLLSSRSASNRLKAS

[8] = biological target: Fibroblast growth factor receptor 1 (Homo sapiens, UniProt P11362); test: Selectivity interaction (Upstate Kinase Profiler service (Millipore)) EUB0000056c FGFR1; conditions: at 1 µM
Fibroblast growth factor receptor 1, sequence (P11362 22-822 limits assumed): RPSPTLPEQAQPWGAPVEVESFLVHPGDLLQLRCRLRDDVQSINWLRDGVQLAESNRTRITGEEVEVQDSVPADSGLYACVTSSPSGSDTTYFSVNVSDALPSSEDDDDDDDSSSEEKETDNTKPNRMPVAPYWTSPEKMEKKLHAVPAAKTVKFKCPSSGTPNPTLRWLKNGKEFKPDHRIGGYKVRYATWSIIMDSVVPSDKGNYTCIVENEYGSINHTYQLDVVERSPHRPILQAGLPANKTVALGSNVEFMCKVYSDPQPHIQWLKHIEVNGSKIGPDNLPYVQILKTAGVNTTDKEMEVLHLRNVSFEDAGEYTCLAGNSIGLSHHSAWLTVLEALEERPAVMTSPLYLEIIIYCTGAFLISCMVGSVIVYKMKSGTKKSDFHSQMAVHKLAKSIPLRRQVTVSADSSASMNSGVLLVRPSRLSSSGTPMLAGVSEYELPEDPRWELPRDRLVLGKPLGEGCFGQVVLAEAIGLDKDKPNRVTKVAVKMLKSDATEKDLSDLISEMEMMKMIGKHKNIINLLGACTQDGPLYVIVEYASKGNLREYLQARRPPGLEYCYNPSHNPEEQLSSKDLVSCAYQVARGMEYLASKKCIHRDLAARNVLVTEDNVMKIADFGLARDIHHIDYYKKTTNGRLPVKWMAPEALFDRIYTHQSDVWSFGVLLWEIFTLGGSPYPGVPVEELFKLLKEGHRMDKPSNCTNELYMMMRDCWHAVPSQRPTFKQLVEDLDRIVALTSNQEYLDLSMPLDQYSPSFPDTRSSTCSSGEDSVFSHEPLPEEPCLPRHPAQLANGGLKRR

[9] = biological target: Serine/threonine-protein kinase MRCK beta (Homo sapiens) (UniProt Q9Y5S2); test: Selectivity interaction (KinomeScan (DiscoverX)) EUB0000607a CDC42BPB; conditions: at 10 µM
Serine/threonine-protein kinase MRCK beta (Homo sapiens), sequence (Q9Y5S2 whole entry): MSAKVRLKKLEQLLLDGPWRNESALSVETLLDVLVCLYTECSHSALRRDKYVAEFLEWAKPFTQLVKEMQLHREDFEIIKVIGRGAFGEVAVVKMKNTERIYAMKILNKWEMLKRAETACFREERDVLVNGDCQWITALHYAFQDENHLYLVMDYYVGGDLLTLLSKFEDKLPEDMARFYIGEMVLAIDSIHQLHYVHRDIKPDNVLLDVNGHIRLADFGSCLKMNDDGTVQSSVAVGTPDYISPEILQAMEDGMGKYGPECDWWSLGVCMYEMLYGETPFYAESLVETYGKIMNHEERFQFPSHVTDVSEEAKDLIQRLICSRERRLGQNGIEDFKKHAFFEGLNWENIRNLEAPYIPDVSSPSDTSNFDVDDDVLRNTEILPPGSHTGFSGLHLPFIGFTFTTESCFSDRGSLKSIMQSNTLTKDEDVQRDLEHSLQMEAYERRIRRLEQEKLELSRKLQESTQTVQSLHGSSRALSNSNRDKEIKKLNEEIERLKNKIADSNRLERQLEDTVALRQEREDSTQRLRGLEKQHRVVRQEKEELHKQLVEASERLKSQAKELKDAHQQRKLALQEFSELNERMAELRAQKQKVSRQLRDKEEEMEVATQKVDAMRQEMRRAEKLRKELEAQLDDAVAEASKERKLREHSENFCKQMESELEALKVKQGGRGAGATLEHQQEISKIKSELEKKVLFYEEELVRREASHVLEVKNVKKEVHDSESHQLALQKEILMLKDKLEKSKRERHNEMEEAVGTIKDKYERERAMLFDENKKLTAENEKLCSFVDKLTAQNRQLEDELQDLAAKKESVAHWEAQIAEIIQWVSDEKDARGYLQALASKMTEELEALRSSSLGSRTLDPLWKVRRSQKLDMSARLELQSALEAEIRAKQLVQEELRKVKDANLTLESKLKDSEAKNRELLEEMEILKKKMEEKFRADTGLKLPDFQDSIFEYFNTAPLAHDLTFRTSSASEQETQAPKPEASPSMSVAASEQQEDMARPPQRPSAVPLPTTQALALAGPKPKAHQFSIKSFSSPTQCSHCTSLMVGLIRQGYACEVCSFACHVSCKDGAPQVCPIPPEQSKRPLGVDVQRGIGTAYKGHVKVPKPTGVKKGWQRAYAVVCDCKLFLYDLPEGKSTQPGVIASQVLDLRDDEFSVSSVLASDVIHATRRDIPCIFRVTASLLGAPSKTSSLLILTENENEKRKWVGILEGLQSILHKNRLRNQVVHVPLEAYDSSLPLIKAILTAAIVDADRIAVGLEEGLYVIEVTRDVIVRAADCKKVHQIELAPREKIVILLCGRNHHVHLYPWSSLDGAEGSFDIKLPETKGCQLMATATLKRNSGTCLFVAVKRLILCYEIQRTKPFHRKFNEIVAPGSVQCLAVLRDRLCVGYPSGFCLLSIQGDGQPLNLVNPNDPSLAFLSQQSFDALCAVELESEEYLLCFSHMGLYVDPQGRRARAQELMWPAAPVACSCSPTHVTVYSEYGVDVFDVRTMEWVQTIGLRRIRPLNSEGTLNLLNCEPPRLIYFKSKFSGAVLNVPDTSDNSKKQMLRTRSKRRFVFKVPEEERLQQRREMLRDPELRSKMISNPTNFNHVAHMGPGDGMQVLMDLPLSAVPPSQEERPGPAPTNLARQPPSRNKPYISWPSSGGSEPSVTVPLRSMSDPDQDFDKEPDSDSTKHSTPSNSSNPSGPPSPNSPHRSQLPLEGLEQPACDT

COc1cc(Nc2nc(C)cc(-c3cnn4nc(OC)ccc34)n2)cc(C(F)(F)F)c1
% of control [1]: 96%

O=C(NOC[C@H](O)CO)c1ccc(F)c(F)c1Nc1ccc(I)cc1F
% of control [2]: 99%

CCN(CC)CCCCNc1ncc2cc(-c3cc(OC)cc(OC)c3)c(NC(=O)NC(C)(C)C)nc2n1
% of control [3]: 100% | % of control [4]: 100%

O[C@H]1CC[C@H](Nc2ncc3nc(Nc4c(F)cc(F)cc4F)n([C@H]4CCOC4)c3n2)CC1
% of control [5]: 96%

N#Cc1cccc(-c2c[nH]c3ncnc(N4CCOCC4)c23)c1
% of inhibition [6]: -53% | % of control [7]: 100%

Cc1ccc(-c2ccc3c(ccc4sc5c(c43)NC[C@@H](C)NC5=O)n2)cn1
% of inhibition [8]: 3%

CNC(=O)Nc1ccc(-c2nc(N3CC4CCC(C3)O4)c3cnn(C4CCC5(CC4)OCCO5)c3n2)cc1
% of control [9]: 100%
